Values quoted from earlier work, collected in article PMC3964610 (Methods in molecular biology (Clifton, N.J.), 2012).

Settings: I.P. 10 mg/kg, male Swiss Albino mice, plasma; ref [17]

AUC: 5718 ng·h/mL | Cmax: 5121 ng/mL | Tmax: 4.8 min
Compound: CCC(=O)N1CCN(c2ccc(-n3c(=O)ccc4cnc5ccc(-c6cnc7ccccc7c6)cc5c43)cc2C(F)(F)F)CC1 [Torin1, 1-(4-(4-propionylpiperazin-1-yl)-3-(trifluoromethyl)phenyl)-9-(quinolin-3-yl)benzo[h][1,6]naphthyridin-2(1H)-one]
